Experimental data reported in patent US20240182460A1, “ALLOSTERIC CHROMENONE INHIBITORS OF PHOSPHOINOSITIDE 3-KINASE (PI3K) FOR THE TREATMENT OF DISEASE” (PETRA PHARMA CORPORATION, priority 2022, published 2024).
pIC50: −log10 of the molar value.

target: PI3Kα E545K (Homo sapiens, UniProt P42336, E545K); test: PI3Kα E545K mutant in vitro cell based assay, MDA-MB-361 cells; design: MDA-MB-361 (ATCC-HTB-27) cell line (PI3Kα E545K); host or cells: MDA-MB-361; conditions: MDA-MB-361 cell line, 0% FBS, no insulin, 3 hours treatment
Sequence (P42336 whole entry E545K): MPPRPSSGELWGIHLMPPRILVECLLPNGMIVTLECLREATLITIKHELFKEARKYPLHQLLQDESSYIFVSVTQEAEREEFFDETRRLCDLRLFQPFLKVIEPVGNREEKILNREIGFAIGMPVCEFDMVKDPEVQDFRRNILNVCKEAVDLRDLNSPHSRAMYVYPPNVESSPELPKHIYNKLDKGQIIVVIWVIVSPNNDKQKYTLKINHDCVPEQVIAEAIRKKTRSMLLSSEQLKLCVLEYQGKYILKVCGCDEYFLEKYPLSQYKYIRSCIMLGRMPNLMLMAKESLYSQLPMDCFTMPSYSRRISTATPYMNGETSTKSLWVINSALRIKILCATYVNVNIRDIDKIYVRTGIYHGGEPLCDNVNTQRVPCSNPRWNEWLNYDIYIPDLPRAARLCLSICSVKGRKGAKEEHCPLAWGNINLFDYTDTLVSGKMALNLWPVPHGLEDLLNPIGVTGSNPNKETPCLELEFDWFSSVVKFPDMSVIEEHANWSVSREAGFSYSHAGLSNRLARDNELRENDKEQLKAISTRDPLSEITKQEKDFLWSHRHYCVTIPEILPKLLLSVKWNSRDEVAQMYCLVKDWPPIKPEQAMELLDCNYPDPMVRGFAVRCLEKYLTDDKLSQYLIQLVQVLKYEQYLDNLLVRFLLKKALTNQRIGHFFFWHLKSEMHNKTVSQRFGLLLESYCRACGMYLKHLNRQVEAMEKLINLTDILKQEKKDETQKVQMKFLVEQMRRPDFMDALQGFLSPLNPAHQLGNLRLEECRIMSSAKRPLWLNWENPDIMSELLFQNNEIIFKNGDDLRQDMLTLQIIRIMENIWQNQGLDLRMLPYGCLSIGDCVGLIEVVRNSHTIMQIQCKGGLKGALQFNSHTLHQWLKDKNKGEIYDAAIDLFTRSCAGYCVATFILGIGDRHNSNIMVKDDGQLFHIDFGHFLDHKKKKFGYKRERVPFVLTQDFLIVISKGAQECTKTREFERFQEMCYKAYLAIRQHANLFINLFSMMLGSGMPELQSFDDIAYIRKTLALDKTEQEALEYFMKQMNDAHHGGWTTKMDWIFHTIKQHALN
Sequence (P27986 whole entry partner): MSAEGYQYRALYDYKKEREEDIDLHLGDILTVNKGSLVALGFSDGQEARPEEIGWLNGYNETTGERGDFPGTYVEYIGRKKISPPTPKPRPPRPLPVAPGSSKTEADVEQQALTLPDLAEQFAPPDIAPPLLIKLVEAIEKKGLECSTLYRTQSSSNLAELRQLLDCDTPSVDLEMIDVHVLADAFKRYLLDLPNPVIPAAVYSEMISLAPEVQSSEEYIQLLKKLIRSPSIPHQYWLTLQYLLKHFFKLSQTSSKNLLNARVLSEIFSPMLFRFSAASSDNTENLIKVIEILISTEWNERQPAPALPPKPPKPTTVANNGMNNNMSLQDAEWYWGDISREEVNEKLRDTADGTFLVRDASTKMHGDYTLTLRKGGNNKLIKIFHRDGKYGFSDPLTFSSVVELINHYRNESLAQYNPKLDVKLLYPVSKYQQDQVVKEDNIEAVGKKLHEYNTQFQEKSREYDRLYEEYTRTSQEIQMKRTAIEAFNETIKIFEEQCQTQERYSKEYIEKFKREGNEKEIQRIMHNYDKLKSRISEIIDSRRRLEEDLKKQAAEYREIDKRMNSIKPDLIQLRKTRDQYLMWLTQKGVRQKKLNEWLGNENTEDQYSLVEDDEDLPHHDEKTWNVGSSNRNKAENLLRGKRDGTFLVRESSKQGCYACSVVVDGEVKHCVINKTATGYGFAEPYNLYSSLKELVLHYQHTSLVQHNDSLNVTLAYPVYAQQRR
Source text: PI3K-Alpha Kinase (PI3Kα) Activity: Wild-Type PI3Kα, H1047R Mutant PI3Kα, and E545K Mutant PI3Kα In Vitro Cell Based Assays and Determination of IC50 Values for Inhibitors
The MDA-MB-453 (ATCC-HTB-131) cell line (PI3Kα H1047R) and MCF-7 (ATCC-HTB-22) cell line (PI3Kα E545K), MDA-MB-361 (ATCC-HTB-27) cell line (PI3Kα E545K), and SKBR3 (ATCC-HTB-30) cell line (wild type PI3Kα) were obtained from the American Type Culture Collection (Manassas, VA). MDA-MB-453 cells were maintained in Dulbecco's Modified Eagle Media (DMEM, Gibco 12430) supplemented with 10% Fetal Bovine Serum, heat inactivated (FBS HI, Gibco 10082), 1× non-essential amino acids (NEAA, Gibco 11140), 1 mM sodium pyruvate (Gibco 11360) and 1× Anti-Anti (Gibco 15240). MCF-7 cells were maintained in Minimum Essential Media (MEM) (Gibco 11095) supplemented with 10% Fetal Bovine Serum, heat inactivated (FBS HI, Gibco 10082), 1× non-essential amino acids (NEAA, Gibco 11140), 1 mM sodium pyruvate (Gibco 11360), 1× Anti-Anti (Gibco 15240) and 10 μg/mL human insulin (Sigma I 9278). MDA-MB-361 cells were maintained in Dulbecco's Modified Eagle Media (DMEM, Gibco 12430) supplemented with 20% Fetal Bovine Serum, heat inactivated (FBS HI, Gibco 10082), 1× non-essential amino acids (NEAA, Gibco 11140), 1 mM sodium pyruvate (Gibco 11360) and 1× Anti-Anti (Gibco 15240). SKBR3 cells were maintained in McCoy's 5A (Gibco 16600) supplemented with 10% Fetal Bovine Serum, heat inactivated (FBS HI, Gibco 10082), and 1× Anti-Anti (Gibco 15240). Cultures were maintained in a humidified incubator at 37° C. under 5% CO2/95% air.
For compound testing in 0% FBS, MDA-MB-453, MCF-7 and SKBR3 cells were seeded at a density of 1.5×10^4, 1.0×10^4, and 1.0×10^4 cells, respectively, per well in white 384-well plates in 20 μl of Minimum Essential Media (MEM) assay media with 1×NEAA, 1 mM sodium pyruvate, and 1 μg/mL human insulin (Sigma 19278) (Assay Medium); while MDA-MB-361 cells were seeded at a density of 1.5×10^4 per well in white 384-well plates in 20 μl Assay Medium without insulin. After plating, cells were allowed to attach overnight. Compounds dissolved in 10 mM stock solutions in DMSO were serially diluted 1:3 in DMSO to generate a 10-point dilution series and plated using an acoustic liquid handler system (Echo 550 Series Liquid Handler, Labcyte). A 5× intermediate compound dilution plate in MEM with 1×NEAA and 1 mM sodium pyruvate (150 μM starting compound concentration in 1.5% DMSO) was then prepared. Five μl of the intermediate serially diluted compounds were added to the cell plate to final concentrations ranging from […] in 0.3% DMSO. 0.3% DMSO alone was used to establish the maximum (MAX) signal and GDC-0032 at a final concentration of 1 μM was used as a reference compound for the minimum (MIN) signal. After 3 hours treatment, the medium was removed, and the cells were lysed in 10 μL of 1× SureFire Lysis buffer with shaking for 10 minutes at room temperature. The Acceptor Mix (Reaction Buffer 1+Reaction Buffer 2+Activation Buffer+SureFire Ultra Acceptor Beads) was prepared by diluting Activation buffer 25-fold in combined Reaction Buffer 1 and Reaction Buffer 2.
The Acceptor beads were diluted 50-fold in the combined Reaction Buffers. Five μL of Acceptor Mix was added to each well, the plate was sealed and covered with foil and incubated for 1 hour at room temperature. The Donor Mix (dilution buffer+SureFire Ultra Donor Beads) was prepared by diluting Donor Beads 50-fold in dilution buffer. Five μL of the Donor Mix was added to each well and the plate sealed and covered with foil and incubated for 1-2 hours at room temperature in the dark. The plates were read on a Neo2 plate reader instrument from Biotek using standard AlphaLisa settings.
Compounds were tested in duplicate and the % inhibition at each compound concentration was used to generate two dose response curves. One IC50 was generated using average % inhibition at each compound concentration. […]

pIC50 | SMILES
> 6.30 | Cc1cc([C@@H](C)Oc2ccc(Cl)nc2S(N)(=O)=O)c2oc(-c3cnn4c3COCC4)c(C)c(=O)c2c1 [Example 3B, 6-Chloro-3-[(1R)-1-[2-(6,7-dihydro-4H-pyrazolo[5,1-c][1,4]oxazin-3-yl)-3,6-dimethyl-4-oxo-chromen-8-yl]ethoxy]pyridine-2-sulfonamide]
> 6.30 | Cc1cc([C@@H](C)Oc2ccc(Cl)nc2S(N)(=O)=O)c2oc(-c3cnc4c(c3)OCCO4)c(C)c(=O)c2c1 [Example 6B]
> 6.30 | Cc1cc([C@@H](C)Oc2ccc(Cl)nc2S(N)(=O)=O)c2oc(-c3cnn(C[C@H](C)O)c3)c(C)c(=O)c2c1 [Example 7B, 6-Chloro-3-[(1R)-1-[2-[1-[(2S)-2-hydroxypropyl]pyrazol-4-yl]-3,6-dimethyl-4-oxo-chromen-8-yl]ethoxy]pyridine-2-sulfonamide]
> 6.30 | Cc1cc([C@@H](C)Oc2ccc(Cl)nc2S(N)(=O)=O)c2oc(-c3ccccc3)c(C)c(=O)c2c1 [Example 13A, 6-Chloro-3-[(1R)-1-(3,6-dimethyl-4-oxo-2-phenyl-chromen-8-yl)ethoxy]pyridine-2-sulfonamide]
> 6.30 | Cc1cc([C@@H](C)Oc2ccc(Cl)nc2S(N)(=O)=O)c2oc(-c3cnn(C)c3)c(C)c(=O)c2c1 [Example 14A, 6-Chloro-3-[(1R)-1-[3,6-dimethyl-2-(1-methylpyrazol-4-yl)-4-oxo-chromen-8-yl]ethoxy]pyridine-2-sulfonamide]
> 6.30 | Cc1cc([C@@H](C)Oc2ccc(Cl)nc2S(N)(=O)=O)c2oc(-c3cnc4c(c3)OCO4)c(C)c(=O)c2c1 [Example 15A, 6-Chloro-3-[(1R)-1-[2-([1,3]dioxolo[4,5-b]pyridin-6-yl)-3,6-dimethyl-4-oxo-chromen-8-yl]ethoxy]pyridine-2-sulfonamide]
> 6.30 | Cc1cc([C@@H](C)Oc2ccc(Cl)nc2S(N)(=O)=O)c2oc(-c3cnn(C)c3C)c(C)c(=O)c2c1 [Example 18C, 6-Chloro-3-[(1R)-1-[2-(1,5-dimethylpyrazol-4-yl)-3,6-dimethyl-4-oxo-chromen-8-yl]ethoxy]pyridine-2-sulfonamide]
> 6.30 | Cc1cc([C@@H](C)Oc2ccc(Cl)nc2S(N)(=O)=O)c2oc(-c3cnc(OC(C)C)nc3)c(C)c(=O)c2c1 [Example 23C, 6-Chloro-3-[(1R)-1-[2-(2-isopropoxypyrimidin-5-yl)-3,6-dimethyl-4-oxo-chromen-8-yl]ethoxy]pyridine-2-sulfonamide]
> 6.30 | Cc1cc([C@@H](C)Oc2ccc(Cl)nc2NC(=O)CO)c2oc(-c3cnn(C)c3)c(C)c(=O)c2c1 [Example 27B, N-[6-Chloro-3-[(1R)-1-[3,6-dimethyl-2-(1-methylpyrazol-4-yl)-4-oxo-chromen-8-yl]ethoxy]-2-pyridyl]-2-hydroxy-acetamide]
> 6.30 | Cc1cc([C@@H](C)Oc2ccc(Cl)nc2C(=O)NOCC2CC2)c2oc(-c3ccc4nn(C)cc4c3)c(C)c(=O)c2c1 [Example 28A, 6-Chloro-N-(cyclopropylmethoxy)-3-[(1R)-1-[3,6-dimethyl-2-(2-methylindazol-5-yl)-4-oxo-chromen-8-yl]ethoxy]pyridine-2-carboxamide]
> 6.30 | Cc1cc([C@@H](C)Oc2cccnc2-c2ccccc2F)c2oc(-c3cc[nH]c(=O)c3)c(C)c(=O)c2c1 [Example 29A, 4-[8-[(1R)-1-[[2-(2-Fluorophenyl)-3-pyridyl]oxy]ethyl]-3,6-dimethyl-4-oxo-chromen-2-yl]-1H-pyridin-2-one]
> 6.30 | Cc1cc([C@@H](C)Oc2cccnc2-c2ccccc2F)c2oc(-c3ccc(=O)[nH]c3)c(C)c(=O)c2c1 [Example 30A]
> 6.30 | Cc1cc([C@@H](C)Oc2ccc(Cl)nc2C(N)=O)c2oc(-c3cnn4c3COCC4)c(C)c(=O)c2c1 [Example 40A, 6-Chloro-3-[(1R)-1-[2-(6,7-dihydro-4H-pyrazolo[5,1-c][1,4]oxazin-3-yl)-3,6-dimethyl-4-oxo-chromen-8-yl]ethoxy]pyridine-2-carboxamide]
> 6.30 | Cc1cc([C@@H](C)Oc2ccc(Cl)nc2C(N)=O)c2oc(-c3ccc4cncn4c3)c(C)c(=O)c2c1 [Example 43C, 6-Chloro-3-[(1R)-1-(2-imidazo[1,5-a]pyridin-6-yl-3,6-dimethyl-4-oxo-chromen-8-yl)ethoxy]pyridine-2-carboxamide]
> 6.30 | Cc1cc([C@@H](C)Oc2ccc(Cl)nc2C(N)=O)c2oc(-c3ccc4nn(C)nc4c3)c(C)c(=O)c2c1 [Example 50A, 6-Chloro-3-[(1R)-1-[3,6-dimethyl-2-(2-methylbenzotriazol-5-yl)-4-oxo-chromen-8-yl]ethoxy]pyridine-2-carboxamide]
> 6.30 | Cc1cc([C@@H](C)Oc2ccc(Cl)nc2C(N)=O)c2oc(-c3ccc4nn(C)c(C)c4c3)c(C)c(=O)c2c1 [Example 50C, 6-Chloro-3-[(1R)-1-[2-(2,3-dimethylindazol-5-yl)-3,6-dimethyl-4-oxo-chromen-8-yl]ethoxy]pyridine-2-carboxamide]
> 6.30 | Cc1cc([C@@H](C)Oc2ccc(Cl)nc2C(N)=O)c2oc(-c3cnn(C4CC4)c3)c(C)c(=O)c2c1 [Example 51A, 6-Chloro-3-[(1R)-1-[2-(1-cyclopropylpyrazol-4-yl)-3,6-dimethyl-4-oxo-chromen-8-yl]ethoxy]pyridine-2-carboxamide]
> 6.30 | Cc1cc([C@@H](C)Oc2ccc(Cl)nc2C(N)=O)c2oc(-c3cnn(C(F)F)c3)c(C)c(=O)c2c1 [Example 58A, 6-Chloro-3-[(1R)-1-[2-[1-(difluoromethyl)pyrazol-4-yl]-3,6-dimethyl-4-oxo-chromen-8-yl]ethoxy]pyridine-2-carboxamide]
> 6.30 | Cc1cc([C@@H](C)Oc2ccc(Cl)nc2C(N)=O)c2oc(-c3cnc4c(c3)OCO4)c(C)c(=O)c2c1 [Example 59A, 6-Chloro-3-[(1R)-1-[2-([1,3]dioxolo[4,5-b]pyridin-6-yl)-3,6-dimethyl-4-oxo-chromen-8-yl]ethoxy]pyridine-2-carboxamide]
> 6.30 | Cc1cc([C@@H](C)Oc2ccc(Cl)nc2C(N)=O)c2oc(-c3ccc4c(c3)OC(F)(F)O4)c(C)c(=O)c2c1 [Example 60A, 6-Chloro-3-[(1R)-1-[2-(2,2-difluoro-1,3-benzodioxol-5-yl)-3,6-dimethyl-4-oxo-chromen-8-yl]ethoxy]pyridine-2-carboxamide]
> 6.30 | Cc1cc([C@@H](C)Oc2ccc(Cl)nc2C(N)=O)c2oc(-c3ccc4occc4c3)c(C)c(=O)c2c1 [Example 61C, 3-[(1R)-1-[2-(Benzofuran-5-yl)-3,6-dimethyl-4-oxo-chromen-8-yl]ethoxy]-6-chloro-pyridine-2-carboxamide]
> 6.30 | Cc1cc([C@@H](C)Oc2ccc(Cl)nc2C(N)=O)c2oc(C3CC3)c(C)c(=O)c2c1 [Example 63A, 6-Chloro-3-[(1R)-1-(2-cyclopropyl-3,6-dimethyl-4-oxo-chromen-8-yl)ethoxy]pyridine-2-carboxamide]
> 6.30 | Cc1cc([C@@H](C)Oc2ccc(Cl)nc2C)c2oc(-c3cnn(CCO)c3)c(C)c(=O)c2c1 [Example 72C, 8-[(1R)-1-[(6-Chloro-2-methyl-3-pyridyl)oxy]ethyl]-2-[1-(2-hydroxyethyl)pyrazol-4-yl]-3,6-dimethyl-chromen-4-one]
